In publication PMC5613016, “GRL-09510, a Unique P2-Crown-Tetrahydrofuranylurethane -Containing HIV-1 Protease Inhibitor, Maintains Its Favorable Antiviral Activity against Highly-Drug-Resistant HIV-1 Variants in vitro” (Scientific Reports, 2017):
Where two headings read alike, the source gives them in different places.

Assays:
HIV-1LAI = assay: microbe, parasite or virus in culture; format: cell-based; details: for EC50: Human immunodeficiency virus 1, MT2, MT-2 cells, 100 TCID50, MTT assay, read-out: EC50 Against HIV-1LAI
Protocol: (§1) The susceptibility of HIV-1LAI or HIV-2ROD to various compounds was determined as previously described[20]–[22]. Briefly, MT-2 cells (10^4/ml) were exposed to 100 TCID50 of HIV-1LAI or HIV-2ROD in the presence or absence of various concentrations of compounds in 96-well plates and were incubated at 37 °C for 7 days. After incubation, 100 μl of the medium was removed from each well, 3-(4,5-dimetylthiazol-2-yl)-2,5-diphenyltetrazolium bromide (MTT) solution (10 μl, 7.5 mg/ml in PBS) was added to each well, followed by incubation at 37 °C for 2 h. […] To determine the sensitivity of clinically isolated HIV-1s to compounds, PHA-PBMC (10^6/ml) were exposed to 50 TCID50 of each HIV-1 and cultured in the presence or absence of various concentrations of compounds in 10-fold serial dilutions in 96-well plates. In determining the drug-susceptibility of certain laboratory HIV-1 strains, MT-4 cells were employed as target cells as previously described[23],[24]. MT-4 cells (10^5/ml) were exposed to 100 TCID50 of drug-resistant HIV-1s in the presence or absence of various concentrations of compounds and were incubated at 37 °C. On day 7, the supernatants were harvested and the amounts of p24 were determined by using a fully-automated chemiluminescent enzyme immunoassay system (Lumipulse f: Fujirebio, Tokyo)[35]–[37]. […] All assays were performed in duplicate, and EC50 shown in this report represent average values of two to four independent experiments. PHA-PBMCs were derived from a single donor in each independent experiment. The research protocols described in the present study were carried out in accordance with relevant guidelines and regulations, and were approved in Ethics Committee for Epidemiological and General Research at the Faculty of Life Sciences, Kumamoto University.

HIV-2ROD = assay: microbe, parasite or virus in culture; format: cell-based; details: for EC50: Human immunodeficiency virus 2, MT2, MT-2 cells, 100 TCID50, MTT assay, read-out: EC50 Against HIV-2ROD
Protocol: as §1

[1] = Cytotoxicity against MT-2 cells (MTT assay); format: cell-based; details: human
Protocol: as §1

HIV-1BaL (subtype B, R5) = assay: p24 production inhibition in PHA-PBMC; format: cell-based; details: Human immunodeficiency virus 1, PHA-PBMC, p24 Gag production
Protocol: as §1

[2] = test system: HIV-1ERS104pre (wild-type); assay: p24 production inhibition in PHA-PBMC; format: cell-based; details: Human immunodeficiency virus 1, PHA-PBMC, p24 Gag production
Protocol: as §1

HIV-1MDR/B = assay: p24 production inhibition in PHA-PBMC; format: cell-based; details: for EC50: Human immunodeficiency virus 1, PHA-PBMC, p24 Gag production
Protocol: as §1

HIV-1MDR/C = assay: p24 production inhibition in PHA-PBMC; format: cell-based; details: for EC50: Human immunodeficiency virus 1, PHA-PBMC, p24 Gag production
Protocol: as §1

HIV-1MDR/G [3] = assay: p24 production inhibition in PHA-PBMC; format: cell-based; details: for EC50: Human immunodeficiency virus 1, PHA-PBMC, p24 Gag production
Protocol: as §1

HIV-1MDR/TM = assay: p24 production inhibition in PHA-PBMC; format: cell-based; details: for EC50: Human immunodeficiency virus 1, PHA-PBMC, p24 Gag production
Protocol: as §1

HIV-1MDRmix DRV ^R 20P [4] = assay: p24 production inhibition in PHA-PBMC; format: cell-based; details: for EC50: Human immunodeficiency virus 1, read-out: EC50 HIV-1MDRmix DRV ^R 20P, PHA-PBMC, p24 Gag production
Protocol: as §1

[5] = test system: HIV-1ME46 (subtype B, X4/R5); assay: p24 production inhibition in PHA-PBMC; format: cell-based; details: Human immunodeficiency virus 1, PHA-PBMC, p24 Gag production
Protocol: as §1

HIV-1APV ^R 5μM [6] = assay: p24 production inhibition in MT-4 cells; format: cell-based; details: for EC50: Human immunodeficiency virus 1, MT4, read-out: EC50 HIV-1APV ^R 5μM, MT-4 cells, p24 Gag production
Protocol: as §1

HIV-1ATV ^R 5μM = assay: p24 production inhibition in MT-4 cells; format: cell-based; details: for EC50: Human immunodeficiency virus 1, MT4, read-out: EC50 HIV-1ATV ^R 5μM, MT-4 cells, p24 Gag production
Protocol: as §1

HIV-1LPV ^R 5μM = assay: p24 production inhibition in MT-4 cells; format: cell-based; details: for EC50: Human immunodeficiency virus 1, MT4, read-out: EC50 HIV-1LPV ^R 5μM, MT-4 cells, p24 Gag production
Protocol: as §1

HIV-1NL4-3 [7] = assay: p24 production inhibition in MT-4 cells; format: cell-based; details: Human immunodeficiency virus 1, MT4, MT-4 cells, p24 Gag production
Protocol: as §1

HIV-1_9510 ^R 36P = assay: p24 production inhibition in MT-4 cells; format: cell-based; details: for EC50: Human immunodeficiency virus 1, MT4, read-out: EC50 HIV-19510RP36; for fold change of EC50 HIV-19510RP36: compared to EC50 for HIV-1NL4-3, Supplemental Table 3
Protocol: as §1

[8] = test system: HIV-192UG029 (subtype A, X4); assay: p24 production inhibition in PHA-PBMC; format: cell-based, HIV-1; details: Human immunodeficiency virus 1, read-out: EC50 HIV-192UG029 (subtype A, X4)
Protocol: as §1

[9] = test system: HIV-1ERS104pre (wild-type); details: PHA-PBMs, p24 assay, previously reported; and 22; read-out: EC50 HIV-1WT/ERS104pre; cited from earlier work
HIV-1MDR/G [10] = test system: HIV-1MDR/G; design: method as in earlier work; details: and 22, cited from earlier work; for EC50: PHA-PBMs, p24 assay, previously reported; for fold change in EC50 HIV-1MDR/G: compared to HIV-1WT/ERS104pre, previously reported data
HIV-1MDRmix DRV ^R 20P [11] = details: cited from earlier work
HIV-1NL4-3 [12] = details: MT-4 cells, p24 assay, previously reported; and 22; cited from earlier work
HIV-1APV ^R 5μM [13] = test system: HIV-1APV ^R 5μM; design: method as in earlier work; details: and 22, cited from earlier work; for EC50: MT-4 cells, p24 assay, previously reported, read-out: EC50 HIV-1APVR5M; for fold change in EC50 HIV-1APVR5M: compared to HIV-1NL4-3, previously reported data
HIV-1NL4-3 [14] = assay: In vitro selection of resistant HIV-1 variants in MT-4 cells; format: cell-based; details: HIV-1NL4-3 in MT-4 cells, increasing concentrations
From the text: MT-4 cells (10^5/ml) were exposed to HIV-1NL4-3 (500 TCID50) and cultured in the presence of compounds at an initial concentration of its EC50 value. Viral replication was monitored by the determination of the amount of p24 produced by MT-4 cells. The supernatants were harvested on day 7 and were used to infect fresh MT-4 cells for the next round of culture in the presence of increasing concentrations of each compound. Proviral DNAs obtained from the lysates of infected cells were subjected to sequencing. This selection procedure was carried out until the drug concentration reached 5 μM as previously described[20]–[22]).

[15] = compared to EC50 for HIV-1ERS104pre
[16] = number in parentheses, compared to HIV-1NL4-3

| SMILES | EC50 (HIV-1LAI) [nM] | EC50 (HIV-2ROD) [nM] | EC50 [2] [nM] | EC50 (HIV-1MDR/G [3]) [nM] | EC50 (HIV-1MDRmix DRV ^R 20P [4]) [nM] | EC50 (HIV-1APV ^R 5μM [6]) [nM] | EC50 (HIV-1ATV ^R 5μM) [nM] | EC50 (HIV-1LPV ^R 5μM) [nM] | EC50 (HIV-1_9510 ^R 36P) [nM] | EC50 [9] [nM] | EC50 (HIV-1MDR/G [10]) [nM] | fold change in EC50 HIV-1MDR/G (HIV-1MDR/G [10]) | EC50 (HIV-1NL4-3 [12]) [nM] | EC50 (HIV-1APV ^R 5μM [13]) [nM] | fold change in EC50 HIV-1APVR5M (HIV-1APV ^R 5μM [13]) | also measured |
| --- | --- | --- | --- | --- | --- | --- | --- | --- | --- | --- | --- | --- | --- | --- | --- | --- |
| COC(=O)N[C@H](C(=O)N[C@@H](Cc1ccccc1)[C@@H](O)CN(Cc1ccc(-c2ccccn2)cc1)NC(=O)[C@@H](NC(=O)OC)C(C)(C)C)C(C)(C)C [ATV, Atazanavir] | 4 ± 1 | 17 ± 3 | 3.1 ± 0.6 | 30 ± 10 | > 1000 | 371 ± 8 | > 1000 | 38 ± 1 | 24 ± 1 |  |  |  |  |  |  | Selectivity Index (CC50/EC50) MT2/HIV-1LAI (HIV-1LAI; ratio of CC50 to EC50 against HIV-1LAI): 8,100; Selectivity Index (CC50/EC50) MT2/HIV-2ROD (HIV-2ROD; ratio of CC50 to EC50 against HIV-2ROD): 1,906; CC50 [1]: 32.4 ± 1 µM; EC50 (HIV-1BaL (subtype B, R5)): 2 ± 1 nM; EC50 (HIV-1MDR/B): 360 ± 160 nM; fold change of EC50 HIV-1MDR/B (HIV-1MDR/B; [15]): 116; EC50 (HIV-1MDR/C): 50 ± 20 nM; fold change of EC50 HIV-1MDR/C (HIV-1MDR/C; [15]): 16; fold change of EC50 HIV-1MDR/G (HIV-1MDR/G [3]; [15]): 10; EC50 (HIV-1MDR/TM): 71 ± 8 nM; fold change of EC50 HIV-1MDR/TM (HIV-1MDR/TM; [15]): 23; fold change of EC50 HIV-1MDRmix DRV ^R 20P (HIV-1MDRmix DRV ^R 20P [4]; [15]): > 323; EC50 [5]: 4.2 ± 0.5 nM; fold change of EC50 HIV-1APV ^R 5μM (HIV-1APV ^R 5μM [6]; [16]): 86; fold change of EC50 HIV-1ATV ^R 5μM (HIV-1ATV ^R 5μM; [16]): > 233; fold change of EC50 HIV-1LPV ^R 5μM (HIV-1LPV ^R 5μM; [16]): 9; EC50 (HIV-1NL4-3 [7]; Table 3): 4.3 ± 0.9 nM; fold change of EC50 HIV-19510RP36 (HIV-1_9510 ^R 36P): 6; EC50 [8]: 6 ± 3 nM |
| CC(C)CN(C[C@@H](O)[C@H](Cc1ccccc1)NC(=O)O[C@H]1CO[C@H]2OCC[C@H]21)S(=O)(=O)c1ccc(N)cc1 [DRV, Darunavir] | 5 ± 2 | 14 ± 7 | 4.4 ± 0.9 | 20 ± 9 | 300 ± 60 | 410 ± 10 | 24 ± 60 | 34 ± 5 | 41 ± 1 |  |  |  |  |  |  | CC50 at 7 days [1]: 101 ± 8.8 µM; EC50 (HIV-1BaL (subtype B, R5)): 1.8 ± 0.1 nM; EC50 [5]: 2.3 ± 0.4 nM; EC50 (HIV-1NL4-3 [7]; Table 3): 4.5 ± 0.4 nM; EC50 [8]: 5.5 ± 0.1 nM |
| COc1ccc(S(=O)(=O)N(CC(C)C)C[C@@H](O)[C@H](Cc2ccccc2)NC(=O)O[C@H]2CO[C@H]3O[C@@H]4OCC[C@@H]4[C@H]32)cc1 [GRL-0519] |  |  |  |  |  |  |  |  |  | 0.6 ± 0.2 | 2.6 ± 1.3 | 4 | 0.5 ± 0.1 | 38 ± 0.9 | 76 | EC50 (HIV-1MDRmix DRV ^R 20P [11]; PHA-PBMs, p24 assay, previously reported, read-out: EC50 HIV-1MDRmixDRVR20P): 30 ± 9.8 nM; fold change in EC50 HIV-1MDRmixDRVR20P (HIV-1MDRmix DRV ^R 20P [11]; compared to HIV-1WT/ERS104pre, previously reported data): 50 |
| COc1ccc(S(=O)(=O)N(CC(C)C)C[C@@H](O)[C@H](Cc2ccccc2)NC(=O)OC2CO[C@H]3OCC(F)(F)[C@@H]23)cc1 (stereo partly shown) [GRL-04810] |  |  |  |  |  |  |  |  |  | 2.3 ± 0.1 | 4 ± 1 | 2 | 0.5 ± 0.5 | 430 ± 20 | 860 |  |
| CC(C)CN(C[C@@H](O)[C@H](Cc1ccccc1)NC(=O)O[C@H]1CO[C@H]2OCC(F)(F)[C@H]21)S(=O)(=O)c1ccc(N)cc1 [GRL-05010] |  |  |  |  |  |  |  |  |  | 2.7 ± 0.3 | 4 ± 1 | 1 | 3.7 ± 0.1 | 560 ± 30 | 187 |  |
| Cc1cccc(C)c1OCC(=O)N[C@@H](Cc1ccccc1)[C@@H](O)C[C@H](Cc1ccccc1)NC(=O)[C@H](C(C)C)N1CCCNC1=O [LPV, Lopinavir] | 23 ± 3 | 21 ± 7 | 28 ± 2 | 180 ± 20 | > 1000 | 400 ± 10 | > 1000 | > 1000 | 400 ± 20 |  |  |  |  |  |  | CC50 [1]: 26.7 ± 4.2 µM; EC50 (HIV-1MDR/B): > 1000 nM; EC50 (HIV-1MDR/C): 390 ± 50 nM; EC50 (HIV-1MDR/TM): 550 ± 90 nM |
| Cc1nnc(C(=O)NC(C)(C)c2nc(C(=O)NCc3ccc(F)cc3)c(O)c(=O)n2C)o1 [RAL, Raltegravir] |  |  |  |  |  |  |  |  |  |  |  |  |  |  |  | passage at which selection concentration reached 5 µM (HIV-1NL4-3 [14]): ≥ 20 |
| CC(C)(C)NC(=O)[C@@H]1C[C@@H]2CCCC[C@@H]2CN1C[C@@H](O)[C@H](Cc1ccccc1)NC(=O)[C@H](CC(N)=O)NC(=O)c1ccc2ccccc2n1 [SQV, saquinavir] |  |  |  |  |  |  |  |  | 41 ± 9 |  |  |  |  |  |  | EC50 (HIV-1NL4-3 [7]; Supplemental Table 3): 18 ± 1 nM; fold change of EC50 HIV-19510RP36 (HIV-1_9510 ^R 36P): 2 |
